Like-named read-outs stand apart in the source and are kept apart here.
Legend:
Assay in all cases: Inhibition of cell proliferation, CCK8 method
Type in all cases: cell-based, human
A549 cells = details: A549 lung adenocarcinoma cells, 48 h, read-out: Inhibitory activity (IC50) against A549
Description: (§1) Compounds 1-9 of the present invention were respectively weighed and dissolved in 1 ml of dimethyl sulfoxide (DMSO), to prepare a 10 mM drug solution, which was stored in a refrigerator at −20° C. in the dark after packaging. The stock solution was diluted with the corresponding culture medium to the required concentration just before the experiment.
(§2) HBE cells and BEAS-2B cells are normal lung bronchial epithelial cell lines, and both cells were cultured in DMEM high glucose medium (supplemented with 10% fetal bovine serum and 1% double antibody) to the logarithmic growth phase; H460 cells, A549 cells, H1975 cells and HCC827 cells are lung cancer cell lines, and all of them were cultured in RPMI1640 medium (supplemented with 10% fetal bovine serum and 1% double antibody) to the logarithmic growth phase. Among them, H1975 cells and HCC827 cells are EGFR mutant cells.
(§3) When the cells were cultured to 90% of the growth density, the cells were digested with 0.25% trypsin to prepare a single cell suspension. The cells were counted, and then seeded in a 96-well plate at a density of 5000 cells/well, 100 μl for each well. The culture plate was moved into a CO2 incubator and incubated for 24 h at 37° C. and 5% CO2. Compounds at different concentrations were added to each well, 5 replicate wells for each concentration, and the cells were treated with the compounds for 48 hours. CCK8 detection reagent was added to each well according to the operation manual, and then the plate was further incubated for 1 h before terminating the culture. 450 nm wavelength was chosen, and the absorbance value of each well was adjusted on the microplate ELISA analyzer. The result was recorded. […] was taken as the horizontal axis, and absorbance as the vertical axis to plot a curve. The half inhibitory concentration (IC50) was calculated by Bliss method. Each experiment was repeated at least 3 times.
(§4) Normal lung cell lines and different lung cancer cell lines were selected for experiments. Amongst, the compound with high anti-cancer activity was screened, whose anti-tumor activity was further studied.

BEAS-2B cells = details: BEAS-2B normal bronchial epithelial cells, 48 h, read-out: Inhibitory activity (IC50) against BEAS-2B
Description: as §1, §2, §3, §4

H460 cells = details: 48 h, read-out: Inhibitory activity (IC50) against H460
Description: as §1, §2, §3, §4

H1975 cells = details: 48 h, read-out: Inhibitory activity (IC50) against H1975
Description: (§5) The stock solution was diluted with the corresponding culture medium to the required concentration just before the experiment.
as §2
as §3, with “The” for “When the cells were cultured to 90% of the growth density, the cells were digested with 0.25% trypsin to prepare a single cell suspension. The”
(§6) Normal lung cell lines and different lung cancer cell lines were selected for experiments.

HBE cells = details: for IC50: HBE normal bronchial epithelial cells, 48 h, CCK8, read-out: Inhibitory activity (IC50) against HBE
Description: as §5, §2
as §3, with “The” for “When the cells were cultured to 90% of the growth density, the cells were digested with 0.25% trypsin to prepare a single cell suspension. The”
as §6

HCC827 cells = details: for IC50: HCC827 EGFR mutant cells, 48 h, CCK8, read-out: Inhibitory activity (IC50) against HCC827; for selectivity for HCC827 cells (in words): EGFR mutant HCC827 cells versus other cell lines
Description: as §5, §2
as §3, with “The” for “When the cells were cultured to 90% of the growth density, the cells were digested with 0.25% trypsin to prepare a single cell suspension. The”
as §6

[1] = Homo sapiens, NCI-H460, H460 large cell lung cancer cells
[2] = Homo sapiens, NCI-H1975, H1975 EGFR mutant cells

Structure (SMILES) | IC50 (A549 cells; Homo sapiens) [µM] | IC50 (H460 cells; [1]) [µM] | IC50 (H1975 cells; [2]) [µM] | IC50 (HCC827 cells; Homo sapiens) [nM] | IC50 (A549 cells) [µM] | IC50 (H460 cells; H460 large cell lung cancer cells) [µM] | IC50 (H1975 cells; H1975 EGFR mutant cells) [µM] | IC50 (HCC827 cells) [nM] | IC50 (BEAS-2B cells; Homo sapiens) [µM] | IC50 (HBE cells; Homo sapiens) [µM] | selectivity for HCC827 cells (in words) (HCC827 cells) | inhibitory activity on HCC827 cells (in words) (HCC827 cells; CCK8, 48 h) | IC50 (BEAS-2B cells) [µM] | IC50 (HBE cells) [µM] | toxicity to normal epithelial cells HBE cells (in words) (HBE cells; compared with positive control commercially available Avtinib) | selectivity coefficient (HCC827 cells; IC50 values against HBE cells compared with HCC827 cells)
C=CC(=O)Nc1cccc(Oc2nc(Nc3ccc(N4CCN(C)CC4)c([N+](=O)[O-])c3)nc3c2ccn3COC(=O)C(C)(C)C)c1 [Compound 7] | 3.1 | 4.68 | 4.12 | 440 |  |  |  |  | 5.73 | 3.61 |  |  |  |  |  | 
C=CC(=O)Nc1cccc(Oc2nc(Nc3ccc(N4CCN(C)CC4)c([N+](=O)[O-])c3)nc3[nH]ccc23)c1 [Compound 5] | 2.9 | 8.02 | 3.1 | 100 |  |  |  |  | 3.68 | 7.54 |  |  |  |  |  | 
C=CC(=O)Nc1cccc(Oc2nc(Nc3ccc(N4CCN(C)CC4)c(N)c3)nc3c2ccn3COC(=O)C(C)(C)C)c1 [Compound 8] | 10.8 | 7.65 | 42 | 330 |  |  |  |  | 9.54 | 9.58 |  | certain inhibitory effect |  |  |  | 
C=CC(=O)Nc1cccc(Oc2nc(Nc3ccc(N4CCN(C)CC4)c(I)c3)nc3c2ccn3COC(=O)C(C)(C)C)c1 [Compound 9] | 9.63 | 25.1 | 52.3 | 51700 |  |  |  |  | 29.1 | 7.5 |  |  |  |  |  | 

Further lines, with some results ahead:

IC50 (A549 cells; Homo sapiens) [µM] | IC50 (H460 cells; [1]) [µM] | IC50 (H1975 cells; [2]) [µM] | IC50 (HCC827 cells; Homo sapiens) [nM] | IC50 (A549 cells) [µM] | IC50 (H460 cells; H460 large cell lung cancer cells) [µM] | IC50 (H1975 cells; H1975 EGFR mutant cells) [µM] | IC50 (HCC827 cells) [nM] | Structure (SMILES) | IC50 (BEAS-2B cells; Homo sapiens) [µM] | IC50 (HBE cells; Homo sapiens) [µM] | selectivity for HCC827 cells (in words) (HCC827 cells) | inhibitory activity on HCC827 cells (in words) (HCC827 cells; CCK8, 48 h) | IC50 (BEAS-2B cells) [µM] | IC50 (HBE cells) [µM] | toxicity to normal epithelial cells HBE cells (in words) (HBE cells; compared with positive control commercially available Avtinib) | selectivity coefficient (HCC827 cells; IC50 values against HBE cells compared with HCC827 cells)
20.6 | 33.6 | 22.4 | 260 |  |  |  |  | C=CC(=O)Nc1cccc(Oc2nc(Nc3ccc(N4CCN(C)CC4)c(OC)c3)nc3[nH]ccc23)c1 [Compound 4] | 9.89 | 12.5 | high targeting selectivity |  |  |  |  | 
 |  |  |  | 1.68 | 4.86 | 1.67 | 120 | C=CC(=O)Nc1cccc(Oc2nc(Nc3ccc(N4CCN(C)CC4)c(Cl)c3)nc3[nH]ccc23)c1 [Compound 2] |  |  |  |  | 3.8 | 8.73 |  | 
6.06 | 26.7 | 3.84 | 46 |  |  |  |  | C=CC(=O)Nc1cccc(Oc2nc(Nc3ccc(N4CCN(C)CC4)c(N)c3)nc3[nH]ccc23)c1 [Compound 6] | 7.8 | 22.7 | high targeting selectivity |  |  |  | less toxic | exceeds 490 times
